Reference: patent publication US20120093876A1, “Ophthalmic Formulations, Methods Of Manufacture And Methods of Normalizing Meibomian Gland Secretions” (Aciex, Inc., priority 2010, published 2012)
Counter-ions that a name gives are not always drawn.

Experiments:
[1] = Comfort of hydrophilic excipient bases; format: in vivo; conditions: hydrophilic base
From the text: (§1) The purpose of this study was to investigate the feasibility of formulating Minocycline HCl in a ‘gelment’ with a medicated swab container closure. Specifically, formulation feasibility and stability with hydrophilic bases (PEG 400, propylene glycol, glycerol) investigated. Glycerin was unacceptable from a comfort perspective. […] (Following 3 weeks at 25/40, epi-minocycline was 20.7% for PEG 400 base and 2.9% for propylene glycol base.) Degradation was not detected following e-beam irradiation of Minocycline suspended in light mineral oil (single-point testing performed following irradiation—no stability evaluation).

[2] = Degradation after e-beam irradiation; format: physicochemical; conditions: suspended in light mineral oil; single-point testing following irradiation
From the text: as §1

[3] = Batch uniformity and stability of micronized and unmicronized oil and ointment formulations; format: physicochemical; conditions: jetmilling or cryomilling; 2 batches of drug substance
Experimental: Two Minocycline HCl drug substance batches were micronized (by jetmilling and cryomilling) and evaluated for chemical properties post-micronization. Jetmilled, cryomilled, and unmicronized oil and ointment formulations were evaluated for batch uniformity and stability.
Oil formulations were 100% oil and ointments were 100% petrolatum. […]. […] evaluated with respect to solubility in light mineral oil.
[…]. The oil suspensions in this study provided consistent T0 results, unlike the earlier oil formulations with unmicronized Minocycline HCl.

[4] = Excipient compatibility stability screen, minocycline quantitated by HPLC; conditions: in mineral oil, relative to castor and olive oil

Comfort [1] | Degradation following e-beam irradiation [2] | Change in assay following micronization [3] | Stability (degree of epimerization) in excipient [4] | Structure (SMILES)
unacceptable |  |  |  | OCC(O)CO [Glycerin]
 | not detected | No change | greatest stability | CN(C)c1ccc(O)c2c1C[C@H]1C[C@H]3[C@H](N(C)C)C(O)=C(C(N)=O)C(=O)[C@@]3(O)C(O)=C1C2=O [Minocycline HCl]
